Measurements as given in patent publication US20040087571A1, “Methods of using CCR1 antagonists as immunomodulatory agents” (Pfizer Inc, priority 2002, published 2004).

Assay: not given

Compound | melting point
NC(=O)[C@H](Cc1ccccc1)C[C@H](O)[C@H](Cc1ccccc1)NC(=O)c1cnc2c(c1)CCC2 [Example 286, 6,7-Dihydro-5H-[1]pyrindine-3-carboxylic acid (1(S)-benzyl-4(R)-carbamoyl-2(S)-hydroxy-5-phenyl-pentyl)-amide] | 182 to 186 °C
NC(=O)[C@H](Cc1ccccc1)C[C@H](O)[C@H](Cc1ccccc1)NC(=O)c1cnc2ccccc2c1 [Example 287, Quinoline-3-carboxylic acid (1(S)-benzyl-4(R)-carbamoyl-2(S)-hydroxy-5-phenyl-pentyl)-amide] | 203 to 206 °C
NC(=O)[C@H](Cc1cccc(F)c1)C[C@H](O)[C@H](Cc1ccccc1)NC(=O)c1cnc2ccccc2n1 [Example 292, Quinoxaline-2-carboxylic acid [1(S)-benzyl-4(R)-carbamoyl-5-(3-fluoro-phenyl)-2(S)-hydroxy-pentyl]-amide] | 176 to 179 °C
Cc1cccc(C[C@H](C[C@H](O)[C@H](Cc2ccccc2)NC(=O)c2cnc3ccccc3n2)C(N)=O)c1 [Example 293, Quinoxaline-2-carboxylic acid (1(S)-benzyl-4(R)-carbamoyl-2(S)-hydroxy-5-m-tolyl-pentyl)-amide] | 178 to 179 °C
CC(C)CNC(=O)CC[C@H](O)[C@H](Cc1ccccc1)NC(=O)c1cnc2ccccc2n1 [Example 294, Quinoxaline-2-carboxylic acid (1(S)-benzyl-2(S)-hydroxy-4-isobutylcarbamoyl-butyl)-amide] | 146 to 148 °C
COc1cccc(C[C@H](C[C@H](O)[C@H](Cc2ccccc2)NC(=O)c2cnc3ccccc3n2)C(N)=O)c1 [Example 299, Quinoxaline-2-carboxylic acid [1(S)-benzyl-4(R)-carbamoyl-2(S)-hydroxy-5-(3-methoxy-phenyl)-pentyl]-amide] | 147 to 148 °C
CC(C)(F)CC[C@H](C[C@H](O)[C@H](Cc1ccccc1)NC(=O)c1cnc2ccccc2n1)C(=O)NN [Example 312, Quinoxaline-2-carboxylic acid (1(S)-benzyl-7-fluoro-4(R)-hydrazinocarbonyl-2(S)-hydroxyl-7-methyl-octyl)-amide] | 147 to 149 °C
CC(C)(O)CC[C@H](C[C@H](O)[C@H](Cc1ccccc1F)NC(=O)c1cnc2ccccc2n1)C(=O)NO [Example 320, Quinoxaline-2-carboxylic acid [1(S)-(2-fluoro-benzyl)-2(S),7-dihydroxy-4(R)-hydroxycarbamoyl-7-methyl-octyl]-amide] | 130 to 131 °C
CC(C)(O)CC[C@H](C[C@H](O)[C@H](Cc1ccccc1F)NC(=O)c1cnc2ccccc2n1)C(N)=O [Example 321, Quinoxaline-2-carboxylic acid [4(R)-carbamoyl-1(S)-(2-fluoro-benzyl)-2(S),7-dihydroxy-7-methyl-octyl]-amide] | 147 to 148 °C
CC(C)(O)CC[C@H](C[C@H](O)[C@H](Cc1ccc(F)c(F)c1)NC(=O)c1cnc2ccccc2n1)C(=O)NO [Example 322, Quinoxaline-2-carboxylic acid [1(S)-(3,4-difluoro-benzyl)-2(S),7-dihydroxy-4(R)-hydroxycarbamoyl-7-methyl-octyl]-amide] | 150 to 153 °C
CC(C)(O)CC[C@H](C[C@H](O)[C@H](Cc1ccc(F)c(F)c1)NC(=O)c1cnc2ccccc2n1)C(N)=O [Example 323, Quinoxaline-2-carboxylic acid [4(R)-carbamoyl-1(S)-(3,4-difluoro-benzyl)-2(S),7-dihydroxy-7-methyl-octyl]-amide] | 110 to 120 °C
CC(C)(O)CC[C@H](C[C@H](O)[C@H](Cc1cccc2ccccc12)NC(=O)c1cnc2ccccc2n1)C(N)=O [Example 324, Quinoxaline-2-carboxylic acid (4(R)-carbamoyl-2(S),7-dihydroxy-7-methyl-1(S)-naphthalen-1-ylmethyl-octyl)-amide] | 155 to 158 °C

Second part, the compound after the results:

melting point | Compound
234 to 236 °C | CC1CC(C)CC(O)([C@H](C[C@H](O)[C@H](Cc2ccccc2)NC(=O)c2cnc3ccccc3n2)C(N)=O)C1 (stereo partly drawn) [Example 288, Quinoxaline-2-carboxylic acid [1(S)-benzyl-4(S)-carbamoyl-2(S)-hydroxy-4-(1-hydroxy-3,5-dimethyl-cyclohexyl)-butyl]-amide]
189 to 191 °C | NC(=O)[C@@H](C[C@H](O)[C@H](Cc1ccccc1)NC(=O)c1cnc2ccccc2n1)C1(O)CCCCCC1 [Example 290, Quinoxaline-2-carboxylic acid [1(S)-benzyl-4(S)-carbamoyl-2(S)-hydroxy-4-(1-hydroxy-cycloheptyl)-butyl]-amide]
118 to 119 °C | O=C(N[C@@H](Cc1ccccc1)[C@@H](O)C[C@H](C(=O)NO)C1(O)CCCCCC1)c1cnc2ccccc2n1 [Example 291, Quinoxaline-2-carboxylic acid [1(S)-benzyl-2(S)-hydroxy-4(S)-hydroxycarbamoyl-4-(1-hydroxy-cycloheptyl)-butyl]-amide]
206 to 207 °C | NC(=O)[C@@H](C[C@H](O)[C@H](Cc1ccccc1)NC(=O)c1cnc2ccccc2n1)C1(O)C2CC3CC(C2)CC1C3 (stereo partly drawn) [Example 295, Quinoxaline-2-carboxylic acid [1(S)-benzyl-4(S)-carbamoyl-2(S)-hydroxy-4-(2-hydroxy-adamantan-2-yl)-butyl]-amide]
268 to 269 °C | NC(=O)[C@@H](C[C@H](O)[C@H](Cc1ccccc1)NC(=O)c1cnc2ccccc2n1)C1(O)C2CCCC1CCC2 (stereo partly drawn) [Example 296, Quinoxaline-2-carboxylic acid [1(S)-benzyl-4(S)-carbamoyl-2(S)-hydroxy-4-(9-hydroxy-bicyclo[3.3.1]non-9-yl)-butyl]-amide]
133 to 134 °C | O=C(N[C@@H](Cc1ccccc1)[C@@H](O)C[C@H](C(=O)NO)C1(O)C2CC3CC(C2)CC1C3)c1cnc2ccccc2n1 (stereo partly drawn) [Example 297, Quinoxaline-2-carboxylic acid [1(S)-benzyl-2(S)-hydroxy-4(S)-(2-hydroxy-adamantan-2-yl)-4-hydroxycarbamoyl-butyl]-amide]
130 to 132 °C | O=C(N[C@@H](Cc1ccccc1)[C@@H](O)C[C@H](C(=O)NO)C1(O)C2CCCC1CCC2)c1cnc2ccccc2n1 (stereo partly drawn) [Example 298, Quinoxaline-2-carboxylic acid [1(S)-benzyl-2(S)-hydroxy-4(S)-(9-hydroxy-bicyclo[3.3.1]non-9-yl)-4-hydroxycarbamoyl-butyl]-amide]
227 to 228 °C | CCCC1CCC(O)([C@H](C[C@H](O)[C@H](Cc2ccccc2)NC(=O)c2cnc3ccccc3n2)C(N)=O)CC1 (stereo partly drawn) [Example 300, Quinoxaline-2-carboxylic acid [1(S)-benzyl-4(S)-carbamoyl-2(S)-hydroxy-4-(1-hydroxy-4-propyl-cyclohexyl)-butyl]-amide]
115 to 117 °C | CCCC1CCC(O)([C@H](C[C@H](O)[C@H](Cc2ccccc2)NC(=O)c2cnc3ccccc3n2)C(=O)NO)CC1 (stereo partly drawn) [Example 301, Quinoxaline-2-carboxylic acid [1(S)-benzyl-2(S)-hydroxy-4(S)-hydroxycarbamoyl-4-(1-hydroxy-4-propyl-cyclohexyl)-butyl]-amide]
210 to 211 °C | CC1(C)CCC(O)([C@H](C[C@H](O)[C@H](Cc2ccccc2)NC(=O)c2cnc3ccccc3n2)C(N)=O)CC1 [Example 304, Quinoxaline-2-carboxylic acid [1(S)-benzyl-4(S)-carbamoyl-2(S)-hydroxy-4-(1-hydroxy-4,4-dimethyl-cyclohexyl)-butyl]-amide]
118 to 123 °C | CC1(C)CCC(O)([C@H](C[C@H](O)[C@H](Cc2ccccc2)NC(=O)c2cnc3ccccc3n2)C(=O)NO)CC1 [Example 305, Quinoxaline-2-carboxylic acid [1(S)-benzyl-2(S)-hydroxy-4(S)-hydroxycarbamoyl-4-(1-hydroxy-4,4-dimethyl-cyclohexyl)-butyl]-amide]
207.5 to 208.5 °C | NC(=O)[C@@H](C[C@H](O)[C@H](Cc1ccccc1)NC(=O)c1cnc2ccccc2n1)C1(O)CCC(F)(F)CC1 [Example 306, Quinoxaline-2-carboxylic acid [1(S)-benzyl-4(S)-carbamoyl-4-(4,4-difluoro-1-hydroxy-cyclohexyl)-2(S)-hydroxy-butyl]-amide]
250 to 252 °C | NC(=O)[C@@H](C[C@H](O)[C@H](Cc1ccccc1)NC(=O)c1cnc2ccccc2n1)C1(O)CCC(C(F)(F)F)CC1 (stereo partly drawn) [Example 308, Quinoxaline-2-carboxylic acid [1(S)-benzyl-4(S)-carbamoyl-2(S)-hydroxy-4-(1-hydroxy-4-trifluoromethyl-cyclohexyl)-butyl]-amide]

Assay: Solubility
Type: physicochemical

solubility | Compound
> 250 mg/mL | CC(C)(O)CC[C@H](C[C@H](O)[C@H](Cc1cccs1)NC(=O)c1cnc2ccccc2n1)C(N)=O [Example 313, Quinoxaline-2-carboxylic Acid (4(r)-carbamoyl-2(s),7-dihydroxy-7-methyl-1(s)-thiophen-2-ylmethyl-octyl)-amide]
